Source: publication PMC3728092, “Improvement of Pharmacokinetics Behavior of Apocynin by Nitrone Derivatization: Comparative Pharmacokinetics of Nitrone-Apocynin and its Parent Apocynin in Rats” (PLoS ONE, 2013)
Where “and” joins values, the source holds several entries; their conditions need not be identical. Equal values may be shown once. Read-outs that look alike come from different tables or passages of the source.

Assays:
[1] = test system: LPS-induced acute lung injury; parameters: method as in earlier work; details: rat model of LPS-induced acute lung injury; cited from earlier work
[2] = Single-dose pharmacokinetic study (intravenous and intragastric) with HPLC-UV plasma assay, non-compartmental analysis; format: in vivo, Sprague-Dawley rats; details: rat; for half-life / bioavailability / Cmax / Tmax / MRT last / clearance: male, Sprague-Dawley, plasma; for bioavailability: oral, read-out: F (absolute oral bioavailability); for MRT last: read-out: MRT0–t (converted)
Experimental: (§1) Male Sprague-Dawley rats, weighing 210–290 g, were fasted for 12 h but with free access to water before dosing. The rats were randomly divided into groups of intravenous AN-1, intravenous apocynin, intragastric AN-1 and intragastric apocynin. […] Apocynin was dissolved in a mixture of propylene glycol-saline (4∶6, v/v). The single-dose pharmacokinetic study was performed. For AN-1, three different doses (20, 40 and 80 mg/kg) were administered for intravenous study (n = 6–8) and one dose (40 mg/kg) was given for intragastric study (n = 6). For apocynin, 50 mg/kg, an equimolar dose to 80 mg/kg (0.302 mmol/kg) of AN-1, was administered for both intravenous (n = 8) and intragastric studies (n = 6). A day before dosing, a cannula was introduced into jugular vein on rats for intravenous dosing and blood sampling in all groups.
Blood samples (0.4 mL) was collected via jugular vein into heparinized tubes at 0 min (before dosing) and 5, 10, 15, 30, 45, 60, 90, 120, 180, 240, 360, 480, 600, 720, 840 min for AN-1 and at 0 min (before dosing) and 2, 4, 6, 10, 15, 20, 30, 40, 50, 60 min for apocynin after intravenous and intragastric dosing. An equal volume of heparinized saline was used to flush the catheter immediately after each blood withdrawal to prevent blood clotting. The blood samples were centrifuged immediately at 10,000 rpm for 5 min at 4°C, and then the plasma was transferred and stored at −20°C until analysis.
The profiles of analyte concentrations in rat plasma versus time were analyzed to calculate pharmacokinetic parameters by a non-compartmental model using DAS software (version 3.0.1, Chinese Mathematical Pharmacology Society).

[3] = Stability of analytes in rat plasma under different storage conditions; format: in vitro ADME; details: for Accuracy, post-preparative stability: post-preparative QC samples; for Accuracy, post-preparative stability / Accuracy, short-term stability / Accuracy, freeze-thaw stability / Accuracy, long-term stability: n = 5; for time post-preparative solutions stable: room temperature; for Accuracy in stability test (summary) / Accuracy, short-term stability / Accuracy, freeze-thaw stability / Accuracy, long-term stability: rat plasma; for Accuracy in stability test (summary): long-term −20°C, short-term room temperature and three freeze-thaw cycles; for Accuracy, freeze-thaw stability: three freeze-thaw cycles; for Accuracy, long-term stability: −20°C for 30 days
Experimental: The stability of analytes in rat plasma stored under different conditions was assessed at low, medium and high QC concentrations, respectively. The conditions included long-term storage at −20°C for 30 days, short-term storage at room temperature (8 h for AN-1, 24 h for apocynin), three freeze-thaw cycles treatment, and post-preparative QC samples stored at room temperature (8 h for AN-1, 24 h for apocynin). The concentrations measured from the above samples were compared with the nominal values of QC plasma samples. Samples were concluded stable and applicable to routine analysis if the deviation of the observed concentration was less than ±15% from the nominal value.

[4] = test system: gp91^phox subunit of NADPH-oxidase; parameters: method as in earlier work; details: RAW 264.7 macrophage cells; cited from earlier work
[5] = Solubility in water (remark on dosing vehicle); format: physicochemical
Experimental: as §1

[6] = test system: RAW 264.7 macrophage cells; parameters: method as in earlier work; details: RAW 264.7 cells, compared to parent apocynin, cited from earlier work
[7] = intravenous and oral (intragastric), range over all intravenous and intragastric dose groups, read-out: terminal elimination half-life
[8] = po, intragastric, 40 mg/kg, n = 6
[9] = room temperature 8 h, 0.2 µg/mL
[10] = room temperature 8 h, 250 µg/mL
[11] = room temperature 8 h, 400 µg/mL
[12] = po, intragastric, 50 mg/kg, n = 6
[13] = room temperature 24 h, 0.4 µg/mL
[14] = room temperature 24 h, 40 µg/mL
[15] = room temperature 24 h, 80 µg/mL

COc1cc(C(C)=O)cc(/C=[N+](\[O-])C(C)(C)C)c1O [AN-1, (Z)-N-(5-Acetyl-2-hydroxy-3-methoxybenzylidene)-2-methylpropan-2-amine oxide]
activity of superoxide dismutase in the lung of model rats [1]: significantly increased
treatment effect for the lung injury of model rats [1]: greater treatment effect than apocynin
half-life [2, 7]: 2.71 to 3.35 h
bioavailability ([2]; intragastric 40 mg/kg vs intravenous 40 mg/kg): 78%
Cmax [2, 8]: 80 ± 20 µM
Tmax [2, 8]: 0.43 h
MRT last [2, 8]: 4.85 h
half-life ([2]; po, intragastric, 40 mg/kg, n = 6, read-out: T1/2): 3.35 ± 1.62 h
clearance ([2]; intravenous, 20 mg/kg, n = 8): 5 ± 1 mL/min/kg
MRT last ([2]; intravenous, 20 mg/kg, n = 8): 2.94 h
half-life ([2]; intravenous, 20 mg/kg, n = 8, read-out: T1/2): 2.86 ± 1.33 h
clearance ([2]; intravenous, 40 mg/kg, n = 6): 6 ± 1 mL/min/kg
MRT last ([2]; intravenous, 40 mg/kg, n = 6): 3.22 h
half-life ([2]; intravenous, 40 mg/kg, n = 6, read-out: T1/2): 2.71 ± 0.938 h
half-life ([2]; intravenous, 80 mg/kg (0.302 mmol/kg), n = 8, read-out: T1/2): 3 ± 0.748 h
clearance ([2]; intravenous, 80 mg/kg, n = 8): 5 ± 1 mL/min/kg
MRT last ([2]; intravenous, 80 mg/kg, n = 8): 3.42 h
exposure in the systemic circulation (AUC0–t) relative to apocynin ([2]; equimolar intravenous dose 0.302 mmol/kg): 25 fold
AUC0–t ([2]; intragastric, 40 mg/kg, n = 6): 20.68 ± 3.95 mmol·min/L
CL ([2]; intragastric, 40 mg/kg, n = 6): 7 ± 1 mL/min/kg
V ([2]; intragastric, 40 mg/kg, n = 6): 1.95 ± 0.90 L/kg
AUC0–t ([2]; intravenous, 20 mg/kg, n = 8): 14.88 ± 1.31 mmol·min/L
V ([2]; intravenous, 20 mg/kg, n = 8): 1.20 ± 0.54 L/kg
AUC0–t ([2]; intravenous, 40 mg/kg, n = 6): 26.51 ± 5.12 mmol·min/L
V ([2]; intravenous, 40 mg/kg, n = 6): 1.27 ± 0.32 L/kg
AUC0–t ([2]; intravenous, 80 mg/kg (0.302 mmol/kg), n = 8, 80 mg/kg): 61.89 mmol·min/L and 61.89 ± 7.59 mmol·min/L
V ([2]; intravenous, 80 mg/kg, n = 8): 1.20 ± 0.32 L/kg
Accuracy, post-preparative stability [3, 9]: 88.61±0.58%
Accuracy, post-preparative stability [3, 10]: 88.14±0.84%
Accuracy, post-preparative stability [3, 11]: 91.96±1.51%
time post-preparative solutions stable [3]: at least 8 h
Accuracy in stability test (summary) [3]: higher than 90%
Accuracy, short-term stability [3, 9]: 89.96±0.31%
Accuracy, short-term stability [3, 10]: 91.99±1.37%
Accuracy, short-term stability [3, 11]: 91.46±0.96%
Accuracy, freeze-thaw stability ([3]; 0.2 µg/mL): 94.79±0.46%
Accuracy, freeze-thaw stability ([3]; 250 µg/mL): 95.56±0.95%
Accuracy, freeze-thaw stability ([3]; 400 µg/mL): 96.33±0.98%
Accuracy, long-term stability ([3]; 0.2 µg/mL): 92.98±1.91%
Accuracy, long-term stability ([3]; 250 µg/mL): 94.74±2.43%
Accuracy, long-term stability ([3]; 400 µg/mL): 91.92±0.86%
expression of gp91^phox induced by t-BHP [4]: depressing the high expression
solubility in water [5]: poor solubility in water
protection against t-BHP inducing oxidative cytotoxicity [6]: protected
ROS production ([6]; t-BHP): attenuated the ROS production markedly

COc1cc(C(C)=O)ccc1O [Apocynin, 4-hydroxy-3-methoxyacetophenone]
half-life [2, 7]: 0.0983 to 0.102 h
bioavailability ([2]; intragastric 50 mg/kg vs intravenous 50 mg/kg): 2.8%
Cmax [2, 12]: 8 ± 2 µM
Tmax [2, 12]: 0.0883 h
MRT last [2, 12]: 0.135 h
half-life ([2]; po, intragastric, 50 mg/kg, n = 6, read-out: T1/2): 0.0983 ± 0.03 h
half-life ([2]; intravenous, 50 mg/kg (0.302 mmol/kg), n = 8, read-out: T1/2): 0.102 ± 0.015 h
clearance ([2]; intravenous, 50 mg/kg, n = 8): 120 ± 20 mL/min/kg
MRT last ([2]; intravenous, 50 mg/kg, n = 8): 0.117 h
AUC0–t ([2]; intragastric, 50 mg/kg, n = 6): 0.07 ± 0.01 mmol·min/L
CL ([2]; intragastric, 50 mg/kg, n = 6): 3670 ± 350 mL/min/kg
V ([2]; intragastric, 50 mg/kg, n = 6): 31.46 ± 12.14 L/kg
AUC0–t ([2]; intravenous, 50 mg/kg (0.302 mmol/kg), n = 8, 50 mg/kg): 2.49 ± 0.46 mmol·min/L
AUC0–t ([2]; intravenous, 50 mg/kg (0.302 mmol/kg), n = 8, listed as apocynin, 50 mg/kg): 2.49 mmol·min/L
V ([2]; intravenous, 50 mg/kg, n = 8): 1.09 ± 0.30 L/kg
Accuracy, post-preparative stability [3, 13]: 98.34±6.26%
Accuracy, post-preparative stability [3, 14]: 94.57±0.60%
Accuracy, post-preparative stability [3, 15]: 92.51±1.43%
time post-preparative solutions stable [3]: at least 8 h
Accuracy in stability test (summary) [3]: higher than 90%
Accuracy, short-term stability [3, 13]: 102.47±6.10%
Accuracy, short-term stability [3, 14]: 95.52±1.01%
Accuracy, short-term stability [3, 15]: 94.11±1.35%
Accuracy, freeze-thaw stability ([3]; 0.4 µg/mL): 102.87±1.62%
Accuracy, freeze-thaw stability ([3]; 40 µg/mL): 95.48±0.69%
Accuracy, freeze-thaw stability ([3]; 80 µg/mL): 93.60±1.79%
Accuracy, long-term stability ([3]; 0.4 µg/mL): 102.17±0.87%
Accuracy, long-term stability ([3]; 40 µg/mL): 95.18±0.34%
Accuracy, long-term stability ([3]; 80 µg/mL): 94.09±0.99%
